Measured values from the NIST ThermoML archive (doi:10.1016/j.jct.2015.08.013).

Experiment: xn = mol fraction of the nth substance listed
Conditions: 100 kPa, Liquid; for mass density: Vibrating tube method; for viscosity: Capillary tube (Ostwald / Ubbelohde) method

CC1COC(=O)O1 (configuration not stated) [4-methyl-1,3-dioxolan-2-one] + CN1CCCC1=O
Conditions	mass density [kg/m3]	viscosity [mPa·s]
308.15 K, x2 = 0.5164	1093.99	–
308.15 K, x2 = 0.6011	1080.16	–
308.15 K, x2 = 0.6989	1064.71	–
308.15 K, x2 = 0.7989	1049.38	–
308.15 K, x2 = 0.9003	1034.2	–
308.15 K, x2 = 0.9506	1026.76	–
313.15 K, x2 = 0	1183.11	1.91
313.15 K, x2 = 0.0523	1172.69	–
313.15 K, x2 = 0.1021	1162.99	–
313.15 K, x2 = 0.114	–	1.828
313.15 K, x2 = 0.1995	1144.5	–
313.15 K, x2 = 0.2013	–	1.765
313.15 K, x2 = 0.2987	1126.42	–
313.15 K, x2 = 0.3347	–	1.673
313.15 K, x2 = 0.389	–	1.636
313.15 K, x2 = 0.4003	1108.58	–
313.15 K, x2 = 0.5	–	1.568
313.15 K, x2 = 0.5164	1088.95	–
313.15 K, x2 = 0.597	–	1.516
313.15 K, x2 = 0.6011	1075.18	–
313.15 K, x2 = 0.6989	1059.78	–
313.15 K, x2 = 0.709	–	1.461
313.15 K, x2 = 0.7891	–	1.426
313.15 K, x2 = 0.7989	1044.52	–
313.15 K, x2 = 0.8985	–	1.379
313.15 K, x2 = 0.9003	1029.43	–
313.15 K, x2 = 0.9506	1022.03	–
318.15 K, x2 = 0	1177.55	1.75
318.15 K, x2 = 0.0523	1167.21	–
318.15 K, x2 = 0.1021	1157.58	–
318.15 K, x2 = 0.114	–	1.682
318.15 K, x2 = 0.1995	1139.21	–
318.15 K, x2 = 0.2013	–	1.627
318.15 K, x2 = 0.2987	1121.25	–
318.15 K, x2 = 0.3347	–	1.545
318.15 K, x2 = 0.389	–	1.513
318.15 K, x2 = 0.4003	1103.52	–
318.15 K, x2 = 0.5	–	1.453
318.15 K, x2 = 0.5164	1084	–
318.15 K, x2 = 0.597	–	1.407
318.15 K, x2 = 0.6011	1070.31	–
318.15 K, x2 = 0.6989	1054.99	–
318.15 K, x2 = 0.709	–	1.359
318.15 K, x2 = 0.7891	–	1.328
318.15 K, x2 = 0.7989	1039.81	–
318.15 K, x2 = 0.8985	–	1.286
318.15 K, x2 = 0.9003	1024.81	–
318.15 K, x2 = 0.9506	1017.45	–
323.15 K, x2 = 0	1171.96	1.62
323.15 K, x2 = 0.0523	1161.72	–
323.15 K, x2 = 0.1021	1152.17	–
323.15 K, x2 = 0.114	–	1.56
323.15 K, x2 = 0.1995	1133.96	–
323.15 K, x2 = 0.2013	–	1.513
323.15 K, x2 = 0.2987	1116.14	–
323.15 K, x2 = 0.3347	–	1.443
323.15 K, x2 = 0.389	–	1.414
323.15 K, x2 = 0.4003	1098.55	–
323.15 K, x2 = 0.5	–	1.361
323.15 K, x2 = 0.5164	1079.17	–
323.15 K, x2 = 0.597	–	1.32
323.15 K, x2 = 0.6011	1065.56	–
323.15 K, x2 = 0.6989	1050.38	–
323.15 K, x2 = 0.709	–	1.278
323.15 K, x2 = 0.7891	–	1.25
323.15 K, x2 = 0.7989	1035.3	–
323.15 K, x2 = 0.8985	–	1.213
323.15 K, x2 = 0.9003	1020.41	–
323.15 K, x2 = 0.9506	1013.09	–
